Assays:
[1] = system: KRAS^G12C PDAC cell lines (MIAPaCa-2, XWR200); assay: Long-term clonogenic growth, acquired MAPKi resistance in PDAC cell lines; assay type: cell-based, human; conditions: combined with MAPKi (type II RAFi+MEKi or KRAS G12Ci+MEKi); FIG. 6A to 6F
From the text: (§1) FIGS. 6A-6J. DNA-PKi co-treatment prevents acquired MAPKi-resistance in KRAS^G12 human pancreatic ductal adenocarcinoma and non-small cell lung carcinoma cell lines. FIGS. 6A to 6J: Long-term clonogenic growth of PDAC (MIAPaCa-2, XWR200) (6A to 6F) or NSCLC (H358, H2122) (6G to 6J) cell lines showing acquired-resistant colonies to MEKi alone, type II RAFi+MEKi, or KRAS G12Ci+MEKi and their suppression by indicated co-treatments with DNA-PKi (NU7026) and/or PARPi (ABT888) at indicated concentrations. Top, representative cultures; bottom, quantifications over n=4 fields (mean±SD). Data representative of 2 independent repeats. Seeding densities (cells/well in 6-well dishes) and culture durations: MIAPaCa-2 (10,000; 30 days for 6A-6C), XWR200 (150,000; 23 days for 6D, 30 days for 6E, 26 days for 6F), H358 (40,000; 14 days for 6G, 29 days for 6H, 26 days for 6I), H2122 (20,000, 22 days for 6J). […]
(§2) For clonogenic assay, cells were plated at indicated cell densities in six-well plates and treated with inhibitor(s) the next day. […] Formazan was then dissolved in 100 μL DMSO, and the absorbance values were measured using an ELISA reader (SpectraMax Plus 384) at the wavelength of 570 nm, blanked with DMSO solution. […]

[2] = system: KRAS^G12C NSCLC cell lines (H358, H2122); assay: Long-term clonogenic growth, acquired MAPKi resistance in NSCLC cell lines; assay type: cell-based, human; conditions: combined with MAPKi; FIG. 6G to 6J
From the text: as §1, §2

Row | SMILES | suppression of acquired MAPKi resistance, number of PDAC cell lines [1] | suppression of acquired MAPKi resistance, number of NSCLC cell lines [2]
1 | O=c1cc(N2CCOCC2)oc2c1ccc1ccccc12 [NU7026] | two of two | one of two
2 | C[C@]1(c2nc3c(C(N)=O)cccc3[nH]2)CCCN1 [ABT888, veliparib] | generally ineffective | generally ineffective
